Data published in patent US5516894A, “A2b -adenosine receptors” (priority 1994, dated 1996).
“Also recorded” adds a separate entry of the source.

Columns and labels:
[1] = target: T1, RFL9 (rat A2b-adenosine receptor) (Rattus norvegicus, UniProt P29276); assay: ligand binding to COS-6M cells transiently transfected with RFL9; conditions: for specific binding: [3H]NECA 20 nM, [3H]CCPA 2 nM, [3H]CGS-21680 20 nM
T1 sequence (P29276 1-332): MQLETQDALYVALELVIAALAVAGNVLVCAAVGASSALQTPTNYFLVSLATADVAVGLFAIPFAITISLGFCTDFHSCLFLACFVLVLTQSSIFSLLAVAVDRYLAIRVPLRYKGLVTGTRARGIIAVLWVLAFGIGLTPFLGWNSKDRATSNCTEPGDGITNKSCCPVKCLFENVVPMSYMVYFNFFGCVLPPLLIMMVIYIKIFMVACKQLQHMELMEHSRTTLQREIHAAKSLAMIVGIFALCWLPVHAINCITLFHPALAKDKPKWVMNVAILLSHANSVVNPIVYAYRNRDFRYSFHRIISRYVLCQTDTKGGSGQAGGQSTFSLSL

[2] = tested on: dog A2a-adenosine receptor; conditions: cited from earlier work
[3] = target: T1, RFL9 (rat A2b-adenosine receptor); assay: cAMP in CHO cells stably transfected with RFL9; type: cell-based; conditions: NECA 1 μM; four clones
Text: Eight clones were identified which expressed RFL9 mRNA.
Generation of Stable Cell Lines
RNA was extracted from cells following NP-40 lysis.
Cyclic AMP Studies on Stable Transfectants

A2a-adenosine receptors = conditions: cited from earlier work
[4] = target: T1, RFL9 (rat A2b-adenosine receptor); assay: cAMP response in COS-6M cells transfected with RFL9; type: cell-based
[5] = target: T2, rat A1-adenosine receptor (Rattus norvegicus, UniProt P25099); assay: [3H]ligand binding to COS-6M cells transiently transfected with rat A1-adenosine receptor cDNA; conditions: [3H]NECA 20 nM, [3H]CCPA 2 nM
T2 sequence (P25099 1-326): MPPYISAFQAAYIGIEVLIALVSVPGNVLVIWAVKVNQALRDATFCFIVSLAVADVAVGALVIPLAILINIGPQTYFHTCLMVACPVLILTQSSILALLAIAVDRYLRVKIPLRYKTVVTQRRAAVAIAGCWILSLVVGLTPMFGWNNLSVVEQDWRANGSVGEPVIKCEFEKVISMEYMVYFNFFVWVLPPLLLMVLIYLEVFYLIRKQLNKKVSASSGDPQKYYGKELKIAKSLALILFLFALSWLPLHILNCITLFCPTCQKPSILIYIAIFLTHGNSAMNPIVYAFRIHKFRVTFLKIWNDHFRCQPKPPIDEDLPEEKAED

[6] = target: rat A2a-adenosine receptor (Rattus norvegicus, UniProt P30543); conditions: COS-6M cells; [3H]NECA 20 nM, [3H]CCPA 2 nM, [3H]CGS-21680 20 nM
[7] = target: T1, RFL9 (rat A2b-adenosine receptor); assay: [3H]NECA specific binding to RFL9-transformed CHO cells; conditions: 100 nM; n=3
Text: All determinations were done in triplicate.

[8] = tested on: non-transformed CHO cells; conditions: 100 nM
CHO cells = assay: cAMP accumulation in non-transformed CHO cells; type: cell-based, Chinese Hamster; conditions: 1 mM; CHO cells not transformed; n=3

COc1ccc2[nH]c([125I])c(CCNC(C)=O)c2c1 [2[^125 1]melatonin]
specific binding of 2[125I]melatonin [1]: do not exhibit specific binding

CCNC(=O)[C@H]1O[C@@H](n2cnc3c(N)nc(NCCc4ccc(CCC(=O)O)cc4)nc32)[C@H](O)[C@@H]1O [CGS-21680, 2-[p-(2-carboxyethyl)phenethylamino]5'-N-ethylcarbox-amidoadenosine]
affinity for dog A2a-adenosine receptor [2]: high affinity

CCNC(=O)[C@H]1O[C@@H](n2cnc3c(N)ncnc32)[C@H](O)[C@@H]1O [NECA, 5'-N-ethylcarboxamidoadenosine]
specific binding [1]: bind the nonselective adenosine agonist NECA
stimulation of clones [3]: all were found to be stimulated by NECA addition
affinity for A2a-adenosine receptors (A2a-adenosine receptors): high affinity
EC100 ([4]; 10 min, read-out: concentration of maximal stimulation of cAMP): 10 µM
NECA-stimulated increase in cAMP levels ([4]; dose-response): dose-dependent increase in cAMP levels

OC[C@H]1O[C@@H](n2cnc3c(NC4CCCC4)nc(Cl)nc32)[C@H](O)[C@@H]1O [[^3 H]CCPA, [^3 H]2-chloro-N-cyclopentyladenosine]
specific binding [1]: did not bind; also recorded: do not bind either the A1 - or A2a -receptor-specific agonists with high affinity
specific binding [5]: specifically bound
specific binding [6]: Only cells transfected with the A1 -adenosine receptor cDNA specifically bound

CCNC(=O)[C@H]1O[C@@H](n2cnc3c(N)nc(NCCc4ccc(CCC(=O)O)cc4)nc32)[C@H](O)[C@@H]1O [[^3 H]CGS-21680, [^3 H]2-[p-(2-carboxyethyl)phenethylamino]5'-N-ethylcarbox-amidoadenosine]
specific binding [5]: Only cells transfected with the A2a -adenosine receptor cDNA specifically bound

CCNC(=O)[C@H]1O[C@@H](n2cnc3c(N)ncnc32)[C@H](O)[C@@H]1O [[^3 H]NECA, [^3 H]5'-N-ethylcarboxamidoadenosine]
specific binding [1]: specifically bound
[3H]NECA specific binding [7]: 150 ± 20 fmol/mg

CCNC(=O)[C@H]1O[C@@H](n2cnc3c(N)ncnc32)[C@H](O)[C@@H]1O [[^3 H]NECA] [[^3 H]5'-N-ethylcarboxamidoadenosine]
specific binding [5]: specifically bound
[3H]NECA specific binding [8]: 100 ± 23 fmol/mg

Nc1ncnc2c1ncn2[C@@H]1O[C@H](CO)[C@@H](O)[C@H]1O [adenosine]
cAMP accumulation (CHO cells): Neither NECA or adenosine (1 mM) induced cAMP accumulation

Cn1c(=O)c2[nH]cnc2n(C)c1=O [aminophylline]
inhibition of maximal NECA-stimulated increase in cAMP levels ([4]; antagonist 10^-2 M): completely blocked; also recorded: completely inhibited
